Assay results taken from publication PMC2789237 (Analytical Biochemistry, 2010).

Legend:
[1] = biological target: T1, pteridine reductase 1 (TbPTR1) (Trypanosoma brucei, UniProt O76290); assay: cocrystal structure of ternary complex; cyt c-coupled enzyme inhibition assay; format: biochemical
T1 construct: gene PTR1; N-terminal hexahistidine-tagged protein
T1 sequence (O76290 1-268): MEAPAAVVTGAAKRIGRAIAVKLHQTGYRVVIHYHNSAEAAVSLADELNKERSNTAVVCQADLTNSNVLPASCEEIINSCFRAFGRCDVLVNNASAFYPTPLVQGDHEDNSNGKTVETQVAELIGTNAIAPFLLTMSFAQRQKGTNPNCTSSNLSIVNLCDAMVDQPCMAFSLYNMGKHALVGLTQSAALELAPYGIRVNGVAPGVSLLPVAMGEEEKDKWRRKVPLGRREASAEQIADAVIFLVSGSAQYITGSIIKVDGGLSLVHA

[2] = biological target: T1, pteridine reductase 1 (TbPTR1); assay: cocrystal structure of ternary complex with DDD00066641; format: binding
[3] = substrate: NC(=O)C1=CN([C@@H]2O[C@H](COP(=O)(O)OP(=O)(O)OC[C@H]3O[C@@H](n4cnc5c(N)ncnc54)[C@H](OP(=O)(O)O)[C@@H]3O)[C@@H](O)[C@H]2O)C=CC1; assay: HPLC enzyme kinetics (Km app, data not shown); format: biochemical, Trypanosoma brucei; conditions: varied: cofactor
[4] = substrate: C[C@H](O)[C@H](O)C1=Nc2c(nc(N)[nH]c2=O)NC1; assay: HPLC enzyme kinetics (Km app), with substrate inhibition; format: biochemical, Trypanosoma brucei; conditions: NADPH

Work on `Cc1ccc(-c2ccc3nc(N)nc(N)c3c2)cc1` [DDD00066641, 6-p-tolylquinazoline-2,4-diamine] yielded a Ki [1] of 3 ± 0.8 nM.

In the case of `NC(=O)c1ccc[n+]([C@@H]2O[C@H](COP(=O)(O)OP(=O)(O)OC[C@H]3O[C@@H](n4cnc5c(N)ncnc54)[C@H](OP(=O)(O)O)[C@@H]3O)[C@@H](O)[C@H]2O)c1` [NADP+], the “cocrystal structure of ternary complex with DDD00066641” value [2] is reported as “The structure of the ternary complex of TbPTR1 with this ligand and the cofactor NADP^+ was obtained by cocrystallization”.

B1: pteridine reductase 1 (TbPTR1) (Trypanosoma brucei brucei) (protein)
chain: MEAPAAVVTGAAKRIGRAIAVKLHQTGYRVVIHYHNSAEAAVSLADELNKERSNTAVVCQADLTNSNVLPASCEEIINSCFRAFGRCDVLVNNASAFYPTPLVQGDHEDNSNGKTVETQVAELIGTNAIAPFLLTMSFAQRQKGTNPNCTSSNLSIVNLCDAMVDQPCMAFSLYNMGKHALVGLTQSAALELAPYGIRVNGVAPGVSLLPVAMGEEEKDKWRRKVPLGRREASAEQIADAVIFLVSGSAQYITGSIIKVDGGLSLVHA
notes: N-terminal hexahistidine-tagged protein
B1 showed a Km [3] of 1.6 ± 0.1 µM and a Km [4] of 0.025 ± 0.0067 µM.
